Measurements taken from patent publication US20140349852A1, “METABOLIC CONTROL OF SEED GERMINATION” (Oregon State University, priority 2010, published 2014).

How the values were obtained:
[1] = system: control seeds of non-transgenic plants; test: Germination test of wild-type Camelina seeds; format: in vivo, Camelina sativa; conditions: presence or absence of MOF
Experimental: (§1) For the induction experiment in imbibed seeds, seeds were placed in 9 cm plastic petri dishes on two layers of filter paper (No. 2, Whatman Inc.) moistened with 4 mL water or (122.6 μM or 2×10,000) MOF or 1 mM ABA and incubated at 4° C. for overnight and at 22° C. for 72 h (germination tests and gene expression analysis).

[2] = system: AGE:CYP707A2 transgenic Camelina seeds; test: Germination test of Camelina AGE:CYP707A2 seeds; format: in vivo, Camelina sativa; conditions: imbibed three days in the presence of MOF or MOF+ABA (1 mM ABA)
Experimental: as §1
To determine whether there was an effect of AGE: CYP707A2 transgenic seeds on germination during imbibitions, wild-type and homozygous seeds from transgenic plant lines, 14-3, 3-6, and 2-1, were imbibed for three days in the presence of MOF or in the presence of MOF+ABA.

[3] = system: ABA levels in AGE:NCED6 Camelina seeds; test: ABA quantification in Camelina seeds by mass spectrometry; format: in vivo, Camelina sativa; conditions: after application of MOF
Experimental: ABA was quantified by a previously published method (44), but was modified to ABA. Briefly, samples were ground in liquid nitrogen and internal standards ([…] of 2.5 mM) were added. Samples were extracted with 1.5 mL acetonitrile/methanol (1:1 v:v). After lyophilization, samples were resolubilized in […] of 50% MeOH. For LC separation, two monolithic C18 columns (Onyx, 4.6 mm×100 mm, Phenomenex) with a guard cartridge were used flowing at 1 mL min^−1. […] For quantitation, a series of standards were prepared containing different concentrations of ABA mixed with D-labeled ABA (250 μmol/sample). […] The peak areas of endogenous ABA were normalized with the corresponding internal standard and then calculated according to the standard curve.
To examine whether ABA levels in the AGE: NCED6 seeds were affected by gene induction, ABA in wild-type and the AGE: NCED6 seeds was quantified by mass spectrometry, as described previously. […]

[4] = system: AGE:NCED6 transgenic Camelina seeds; test: Germination test of Camelina AGE:NCED6 seeds; format: in vivo, Camelina sativa; design: recovery of germination of MOF-induced AGE:NCED6 Camelina seeds: dose or concentration left out as unconfirmed
Experimental: as §1
To determine whether there was an effect of the AGE: NCED6 expression vector on the ability of transgenic seeds to undergo germination, wild-type and homozygous seeds from transgenic plant lines, 16-12, 17-17, and 13-12, were imbibed for three days in the presence or absence of MOF. […] Control seeds of non-transgenic plants were shown the same in the presence or absence of MOF. Germination of Camelina seeds is observed initially as ruptured testa followed by emergence of the […] when the radicle emerges.

[5] = system: Arabidopsis NCED6 expression in AGE:NCED6 Camelina seeds; test: Real time PCR analysis of Arabidopsis NCED6 in Camelina seeds; format: in vivo, Camelina sativa; conditions: imbibed three days in the presence or absence of MOF
AGE:NCED6 seeds = test: Germination test of imbibed AGE:NCED6 seeds; format: in vivo, Arabidopsis thaliana; conditions: 10 μM fluridone co-applied with Intrepid®2F
Experimental: Briefly, for the induction of AGE:NCED6 plants at ˜10 rosette stages, diluted (×10,000), Intrepid®2F (Dow AgroSciences) solution which contained 62 μM MOF as an active ingredient was applied directly to the soil in pots containing Arabidopsis seedlings by drenching. Seedling were harvested two days after induction and frozen at −80° C. before RNA extraction. For the induction experiments in imbibed seeds, seeds were placed in 9 cm plastic petri dishes on two layers of filter paper (No. 2, Whatman Inc) moistened with 3.5 mL water or Intrepid®2F (×10,000) and incubated at 4° C. for 3 days and at 22° C. for 29 h (gene expression analysis) or 5 days (germination tests).

Molecule	germination of control seeds of non-transgenic Camelina plants [1]	germination of AGE:CYP707A2 Camelina seeds, line 2-1 [2] [%]	germination of AGE:CYP707A2 Camelina seeds, line 3-6 [2] [%]	germination of AGE:CYP707A2 Camelina seeds, line 14-3 [2] [%]	ABA in AGE:NCED6 Camelina seeds [3]	inhibition of germination (endosperm rupture and radicle protrusion), line 13-12 ([4]; AGE:NCED6 Camelina line 13-12, MOF, three days) [%]	inhibition of germination (endosperm rupture and radicle protrusion), line 16-12 ([4]; AGE:NCED6 Camelina line 16-12, MOF, three days) [%]	inhibition of germination (endosperm rupture and radicle protrusion), line 17-17 ([4]; AGE:NCED6 Camelina line 17-17, MOF, three days) [%]	germination of AGE:NCED6 Camelina seeds ([4]; imbibed three days in the presence of MOF (122.6 μM))	Arabidopsis NCED6 expression in Camelina seeds by real time PCR [5]	recovery of germination of ligand-suppressed AGE:NCED6 seeds (AGE:NCED6 seeds)	recovery of germination of MOF-induced AGE:NCED6 Camelina seeds ([4]; co-application of MOF and fluridone, data not shown)
COc1cccc(C(=O)NN(C(=O)c2cc(C)cc(C)c2)C(C)(C)C)c1C [MOF, methoxyfenozide]	the same	95	98	99	remarkable increase in ABA	95	89	90	inhibited dramatically	did not detect		
fluridone											fully rescued	fully rescued
